The test system of one experiment is SIRT1 MEF cells. Put plainly: PJ34 in SIRT1−/− MEFs. It is filed as cell-based, mice. The method, then:
Cell Culture, Transfection, Adenoviral Infection and Mitochondrial Characterization. HEK293T, MEF and C2C12 cells were cultured in DMEM (4.5 g/l glucose, 10% FCS). PARP-1^+/+ and PARP-1^−/− MEFs were prepared as described in (Menissier-de Murcia et al., 1997). SIRT1 and MEFs were kindly provided by Fred Alt (Chea et al., 2005). SIRT3 MER were established according to standard techniques from conditional SERT3^−/− mice. […] Mitochondrial charge determination was performed as described (Bai et al., 2001) and DNA strand breaks were quantified by TUNEL assays according to the manufacturer's instructions (Millipore).
(§1) Immunoprecipitation, SDS-PAGE, Western Blotting. […] Reactions were developed by enhanced chemiluminescence (Amersham, Little Chalfont, UK), PGC-1α, FOXO1 and Ndufa9 acetylation levels were analyzed by immunoprecipitation from cellular or nuclear lysates of tissues with anti-PGC-1α (Millipore), anti-FOXO1 (Cell Signaling, Danvers, Mass., USA) and anti-Ndufa9 (Abcam) antibody followed by Western blot using an acetyl-lysine antibody (Cell Signaling) that was normalized to total PGC-1a/FOXO1/Ndufa9 levels (Lagouge et al., 2006; Rodgers et al., 2005). […] All blots were quantified by densitometry using ImageJ software. […]

Another experiment relates to SIRT1. The experiment is described as follows: SIRT1 activity (PGC-1α acetylation) and SIRT1 protein in C2C12 myotubes. In kind it is cell-based. As for the experimental part:
(§2) Immunoprecipitation, SDS-PAGE, Western Blotting. Cells were lysed in lysis buffer (50 mM Tris, […], EDTA 1 mM, NP40 1%, nicotinamide 5 mM, Na-butyrate 1 in M, protease inhibitors pH7.4). Proteins were separated by SDS-PAGE and transferred onto nitrocellulose membranes. The origin of the primary and secondary antibodies used can be found as supplemental experimental procedures. Reactions were developed by enhanced chemiluminescence (Amersham, Little Chalfont, UK), PGC-1α, FOXO1 and Ndufa9 acetylation levels were analyzed by immunoprecipitation from cellular or nuclear lysates of tissues with anti-PGC-1α (Millipore), anti-FOXO1 (Cell Signaling, Danvers, Mass., USA) and anti-Ndufa9 (Abcam) antibody followed by Western blot using an acetyl-lysine antibody (Cell Signaling) that was normalized to total PGC-1a/FOXO1/Ndufa9 levels (Lagouge et al., 2006; Rodgers et al., 2005). In HEK293T cells HA-tagged PGC-1α was overexpressed and was immunoprecipitated using an anti-HA. In C2C12 myotubes, FLAG-HA tagged PGC-1α was introduced through adenoviral delivery 2 days before treatments, then IP was performed using anti-FLAG antibody and samples were processed as described. All blots were quantified by densitometry using ImageJ software. Poly(ADP-Ribose) detection was performed as previously described with slight modifications (Bai et al., PARP-1 inhibition increases mitochondrial metabolism through SIRT1 activation. Cell Metab 13, 461-468. (2011)) Briefly, PAR was detected by using a monoclonal anti-PAR antibody (Alexis, Lausanne Switzerland) by Western blotting of total protein lysates, using either […] of total worm protein lysates, […] of liver protein lysate or 200 g of muscle total protein extracts. PGC-1 acetylation was determined using PGC-1 immunoprecipitates from 2 mg of protein extracts, as described in Canto et al. (Canto et al., AMPK regulates energy expenditure by modulating NAD+ metabolism and SIRT1 activity. Nature 458, 1056 (2009)).

Another experiment has as its system HEK293T cells. Put plainly: Nampt, PARP activity, glycolysis and ATP in NR-treated HEK293T cells. It is filed as cell-based, human. The method, then:
(§3) mRNA and mtDNA Analysis. Total RNA was prepared using TRIzol (Invitrogen) according to the manufacturer's instructions. RNA was treated with DNase, and 2 μg of RNA was used for reverse transcription (RT). cDNA was purified on QIAquick PCR cleanup columns (Qiagen, Valencia, Calif., USA). 50× diluted cDNA was used for RT-quantitative PCR (RT-VCR) VCR) reactions (Bai et al., 2007). The RT-qPCR reactions were performed using the Light-Cycler system (Roche Applied Science) and a qPCR Supermix (Qiagen) with the primers for mice summarized in Table 1 and 4, and with the primers for worms summarized on Table 7. mtDNA quantification was performed as described (Lagouge et al., 2006) with the primers indicated in Table 2 and 5.
as §1

The next experiment deals with C57Bl/6J mice. The experiment is described as follows: NAD+ metabolism in tissues after chronic NR feeding. It is filed as in vivo. The method, then:
as §3, §2
NAD^+ NAM Determination. NAD^+ levels in cultured cells were determined using a commercial kit (Enzychrom™, BioAssays Systems, CA). For tissue samples NAD^+ and NAM levels were determined as described in (Sauve et al., 2005). In brief, to a weighed aliquot of frozen pulverized tissue we added as standards, ^18O-NAD^+ (typically 2.00 nmol) and ^18O-NAM (typically 2.00 nmol). 70 L of ice-cold 7% perchloric acid was then added and the sample was vortexed and sonicated three times, then centrifuged. Clear supernatant was removed and neutralized by additions of 3 M NaOH and 1 M phosphate buffer (pH=9), then centrifuged. Clear supernatant was injected onto HPLC C-18 column with 20 mM ammonium acetate eluent to separate NAD^+ and NAM from other cellular components, NAD^+ and NAM peaks (260 nm absorbance) were collected. Collections were lyophilized to dryness and subjected to MALDI-TOF analysis. For NAD^+ measurement, ratio of intensities for m/z=664 and 666 peaks, corresponding to ^16O- and ^18O-NAD^+ isotopomers, was multiplied by 2.00 nmol and then divided by tissue weight to determine NAD+ concentration in the sample. […]

With `CN(C)CC(=O)Nc1ccc2[nH]c(=O)c3ccccc3c2c1` [PJ34], the mitochondrial gene expression result in the experiment with SIRT1 MEF cells (SIRT1 MEF cells) is reported as “largely blunted”. Moreover, the PGC-1α acetylation levels entry with SIRT1 MEF cells (SIRT1−/− MEFs) is on record as “totally unable to decrease PGC-1α acetylation levels”. Further, the SIRT1 protein levels entry in the experiment on SIRT1 (24 hrs) is listed as “did not change SIRT1 protein levels”. The “PGC-1α acetylation (SIRT1 activation)” value with SIRT1 (24 hrs, dose-dependent (FIG. 6F)) is recorded as “deacetylation of PGC-1α”. For the same molecule, in the experiment on SIRT1 (H2O2 500 μM, 6 hrs, PJ34 1 μM), the “SIRT1 function (PGC-1α acetylation) during H2O2 treatment” value is reported as “enhanced SIRT1 function” and the “SIRT1 protein levels during H2O2 treatment” value is reported as “SIRT1 protein levels did not change”.
Turning to `NC(=O)c1ccc[n+]([C@@H]2O[C@H](CO)[C@@H](O)[C@H]2O)c1` [NR, nicotinamide riboside], the “cellular glycolytic rates or ATP levels” value in the experiment on HEK293T cells is listed as “not linked to changes in cellular glycolytic rates or ATP levels”. Also, the “Nampt mRNA or protein content” value with HEK293T cells (0.5 mM, 24 hrs) is “could not see any change”. Further, the “NAD+ levels in liver and muscle” value in the experiment on C57Bl/6J mice (CD and HFD, chronic NR 400 mg/kg/day) is recorded as “increased NAD^+ levels”. Moreover, in the experiment with C57Bl/6J mice (chronic NR 400 mg/kg/day), the “NAD+ in BAT” value was “higher in the BAT of NR-fed mice, but only on HFD” and the “NAD+ levels in brain or white adipose tissue (WAT)” value is “but not in others, such as brain or white adipose tissue (WAT)”. In the experiment on C57Bl/6J mice (gastrocnemius, HFD 16 weeks), the “NADH levels in muscle” value was “largely diminished” and the “nicotinamide (NAM) levels in muscle” value is “largely diminished”. Further, in the experiment on C57Bl/6J mice (quadriceps, HFD 16 weeks), the “Nampt mRNA and protein levels” value was “levels were also similar”; the “mRNA expression of NMNAT enzymes” value is “could not detect differences”.

For the origin of these results see patent US10709724B2, “Methods of treating mitochondrial dysfunction” (Ecole Polytechnique Federale de Lausanne (EPFL), priority 2011, dated 2020).
